“And” between values parts separate entries of the source, which are not always exact repeats. Equal values may be shown once. Toxic doses and inconclusive results are not listed. Peptide text beside a SMILES is read from it. * marks the point of attachment. Cbz = O=C(OCc1ccccc1)*
System: P388 leukemia ip, CD2F1 mice, survival T/C
Assay: NCI In Vivo Anticancer Drug Screen. Data for tumor model P388 Leukemia (intraperitoneal) in CD2F1 (CDF1) mice
Details: endpoint: median survival time, higher = longer survival
How it was run: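 Mice carrying the transplanted tumor received test compound or vehicle. Survival was recorded in each group, and the value is the treated-group measurement divided by that of the vehicle-treated control group.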

[1] = dose: 50.0 mg/kg/injection, schedule: Q01DX009 (ip), vehicle: saline with Tween-80
[2] = dose: 100.0 mg/kg/injection, schedule: Q01DX009 (ip), vehicle: saline with Tween-80
[3] = dose: 200.0 mg/kg/injection, schedule: Q01DX009 (ip), vehicle: saline with Tween-80
[4] = dose: 50.0 mg/kg/injection, schedule: Q01DX005 (ip), vehicle: Klucel (hydroxypropylcellulose) (HPC)
[5] = dose: 100.0 mg/kg/injection, schedule: Q01DX005 (ip), vehicle: Klucel (hydroxypropylcellulose) (HPC)
[6] = dose: 200.0 mg/kg/injection, schedule: Q01DX005 (ip), vehicle: Klucel (hydroxypropylcellulose) (HPC)
[7] = dose: 12.5 mg/kg/injection, schedule: Q01DX005 (ip), vehicle: Klucel (hydroxypropylcellulose) (HPC)
[8] = dose: 25.0 mg/kg/injection, schedule: Q01DX005 (ip), vehicle: Klucel (hydroxypropylcellulose) (HPC)
[9] = dose: 60.0 mg/kg/injection, schedule: Q01DX005 (ip), vehicle: saline with Tween-80
[10] = dose: 100.0 mg/kg/injection, schedule: Q04DX003 (ip), vehicle: Klucel (hydroxypropylcellulose) (HPC)
[11] = dose: 200.0 mg/kg/injection, schedule: Q04DX003 (ip), vehicle: Klucel (hydroxypropylcellulose) (HPC)
[12] = dose: 50.0 mg/kg/injection, schedule: Q01DX005 (ip), vehicle: saline with Tween-80
[13] = dose: 100.0 mg/kg/injection, schedule: Q01DX005 (ip), vehicle: saline with Tween-80
[14] = dose: 200.0 mg/kg/injection, schedule: Q01DX005 (ip), vehicle: saline with Tween-80
[15] = dose: 12.5 mg/kg/injection, schedule: Q01DX009 (ip), vehicle: other
[16] = dose: 25.0 mg/kg/injection, schedule: Q01DX009 (ip), vehicle: other
[17] = dose: 60.0 mg/kg/injection, schedule: Q01DX005 (ip), vehicle: Klucel (hydroxypropylcellulose) (HPC)
[18] = dose: 120.0 mg/kg/injection, schedule: Q01DX005 (ip), vehicle: Klucel (hydroxypropylcellulose) (HPC)
[19] = dose: 240.0 mg/kg/injection, schedule: Q01DX005 (ip), vehicle: Klucel (hydroxypropylcellulose) (HPC)

## CC(C)CCc1cc(O)ccc1O
dose: 25.0 mg/kg/injection, schedule: Q01DX009 (ip), vehicle: saline with Tween-80
  T/C: 114 % of control
[1]
  T/C: 101 % of control
[2]
  T/C: 98 % of control
[3]
  T/C: 97 % of control

## C/C=C(\C)C(=O)N/N=C/c1cccc(OC)c1O
[4]
  T/C: 95 % of control
[5]
  T/C: 92 % of control
[6]
  T/C: 96 % of control

## COc1cc(C)c2c(OC)c(C)c(=O)oc2c1OC
dose: 6.25 mg/kg/injection, schedule: Q01DX005 (ip), vehicle: Klucel (hydroxypropylcellulose) (HPC)
  T/C: 105 % of control
[7]
  T/C: 100 % of control
[8]
  T/C: 97 % of control
[4]
  T/C: 104 % of control

## CC[C@@H](O)[C@H](CC[Se]c1ccccc1)C(=O)[C@H](O)C1CCCCC1
[9]
  T/C: 107 % of control
dose: 120.0 mg/kg/injection, schedule: Q01DX005 (ip), vehicle: saline with Tween-80
  T/C: 105 % of control
dose: 240.0 mg/kg/injection, schedule: Q01DX005 (ip), vehicle: saline with Tween-80
  T/C: 108 % of control

## CCOC(=O)C1CCCN(C)C1 (stereo unspecified)
[10]
  T/C: 104 % of control
[11]
  T/C: 100 % of control
dose: 400.0 mg/kg/injection, schedule: Q04DX003 (ip), vehicle: Klucel (hydroxypropylcellulose) (HPC)
  T/C: 100 % of control

## c1ccc2c(SCCCCSc3c4ccccc4nc4ccccc34)c3ccccc3nc2c1
dose: 60.0 mg/kg/injection, schedule: Q01DX005 (ip), vehicle: saline
  T/C: 113 % of control
dose: 120.0 mg/kg/injection, schedule: Q01DX005 (ip), vehicle: saline
  T/C: 98 % of control
dose: 240.0 mg/kg/injection, schedule: Q01DX005 (ip), vehicle: saline
  T/C: 89 % of control

## NC(=O)C1CCCN1C(=O)C(Cc1ccc(O)cc1)NC(=O)OCc1ccccc1 (stereo not drawn) (Cbz-Tyr-Pro-NH2; configuration not given here)
[12]
  T/C: 104 % of control
[13]
  T/C: 97 % of control
[14]
  T/C: 94 % of control

## NCCc1ccc([N+](=O)[O-])cc1
dose: 50.0 mg/kg/injection, schedule: Q01DX009 (ip), vehicle: saline
  T/C: 104 % of control and 96 % of control
dose: 100.0 mg/kg/injection, schedule: Q01DX009 (ip), vehicle: saline
  T/C: 98 % of control and 105 % of control

## CC(C)(C)N=C(Nc1ccccc1Cl)C(Cl)CSc1ccccc1 (stereo unspecified)
[4]
  T/C: 100 % of control and 102 % of control
[5]
  T/C: 100 % of control and 98 % of control
[6]
  T/C: 105 % of control

## Cc1ccc(SCc2c(COc3ccc(Cl)cc3)sc3ccc(Cl)cc23)cc1
dose: 100.0 mg/kg/injection, schedule: Q01DX001 (ip), vehicle: saline with Tween-80
  T/C: 90 % of control
dose: 200.0 mg/kg/injection, schedule: Q01DX001 (ip), vehicle: saline with Tween-80
  T/C: 86 % of control
dose: 400.0 mg/kg/injection, schedule: Q01DX001 (ip), vehicle: saline with Tween-80
  T/C: 100 % of control

## O=C1C=CC(=O)N1c1ccc(I)cc1Cl
[1]
  T/C: 106 % of control
[2]
  T/C: 104 % of control
[3]
  T/C: 96 % of control

## O=c1oc(-c2ccccc2)nc2c1CCCS2
[4]
  T/C: 100 % of control
[5]
  T/C: 99 % of control and 103 % of control
[6]
  T/C: 103 % of control and 89 % of control

## CC1=C(CO)C(=O)O[C@@H]([C@@H](C)[C@H]2CC[C@H]3[C@@H]4C[C@H]5O[C@]56[C@@H](O)C=CC(=O)[C@]6(C)[C@H]4CC[C@]23C)C1
dose: 2.5 mg/kg/injection, schedule: Q04DX003 (ip), vehicle: saline
  T/C: 102 % of control and 103 % of control
dose: 5.0 mg/kg/injection, schedule: Q04DX003 (ip), vehicle: saline
  T/C: 100 % of control and 103 % of control
dose: 10.0 mg/kg/injection, schedule: Q04DX003 (ip), vehicle: saline
  T/C: 109 % of control and 110 % of control
dose: 20.0 mg/kg/injection, schedule: Q04DX003 (ip), vehicle: saline
  T/C: 102 % of control and 116 % of control
dose: 40.0 mg/kg/injection, schedule: Q04DX003 (ip), vehicle: saline
  T/C: 109 % of control and 123 % of control

## CCn1c(-c2ccc(OC(C)=O)cc2)c(C)c2cc(OC(C)=O)ccc21
[8]
  T/C: 100 % of control
[4]
  T/C: 101 % of control and 102 % of control
[5]
  T/C: 95 % of control and 97 % of control
[6]
  T/C: 90 % of control and 96 % of control
dose: 400.0 mg/kg/injection, schedule: Q01DX005 (ip), vehicle: Klucel (hydroxypropylcellulose) (HPC)
  T/C: 100 % of control

## O=C(Oc1ccc[nH]c1=O)c1cccc(C(F)(F)F)c1
dose: 12.5 mg/kg/injection, schedule: Q01DX009 (ip), vehicle: distilled water + Tween-80
  T/C: 100 % of control
dose: 25.0 mg/kg/injection, schedule: Q01DX009 (ip), vehicle: distilled water + Tween-80
  T/C: 100 % of control
dose: 50.0 mg/kg/injection, schedule: Q01DX009 (ip), vehicle: distilled water + Tween-80
  T/C: 102 % of control
dose: 100.0 mg/kg/injection, schedule: Q01DX009 (ip), vehicle: distilled water + Tween-80
  T/C: 96 % of control
dose: 200.0 mg/kg/injection, schedule: Q01DX009 (ip), vehicle: distilled water + Tween-80
  T/C: 90 % of control

## C=CC1CN2CCC1CC2C(O)c1ccnc2ccc(OC)cc12 (stereo unspecified)
[12]
  T/C: 97 % of control
dose: 50.0 mg/kg/injection, schedule: Q04DX003 (ip), vehicle: alcohol
  T/C: 115 % of control
[13]
  T/C: 104 % of control
dose: 100.0 mg/kg/injection, schedule: Q04DX003 (ip), vehicle: alcohol
  T/C: 105 % of control
dose: 200.0 mg/kg/injection, schedule: Q04DX003 (ip), vehicle: alcohol
  T/C: 115 % of control

## ClC(Cl)(Cl)C(=NN=C(C(Cl)(Cl)Cl)C(Cl)(Cl)Cl)C(Cl)(Cl)Cl
dose: 15.0 mg/kg/injection, schedule: Q01DX005 (ip), vehicle: saline with Tween-80
  T/C: 106 % of control
dose: 30.0 mg/kg/injection, schedule: Q01DX005 (ip), vehicle: saline with Tween-80
  T/C: 103 % of control
[9]
  T/C: 100 % of control and 109 % of control

## COc1ccc2c3c([nH]c2c1[N+](=O)[O-])C(C)NCC3 (stereo unspecified)
[7]
  T/C: 101 % of control
[8]
  T/C: 92 % of control
[4]
  T/C: 92 % of control

## CCOC(=O)NN(CC(=O)OCc1ccccc1)N=O
[15]
  T/C: 109 % of control
[16]
  T/C: 94 % of control
dose: 50.0 mg/kg/injection, schedule: Q01DX009 (ip), vehicle: other
  T/C: 100 % of control
dose: 100.0 mg/kg/injection, schedule: Q01DX009 (ip), vehicle: other
  T/C: 102 % of control
dose: 200.0 mg/kg/injection, schedule: Q01DX009 (ip), vehicle: other
  T/C: 98 % of control

## Cc1cc(N(CCCl)CCCl)ccc1NC(=O)c1ccccc1
dose: 50.0 mg/kg/injection, schedule: Q04DX003 (ip), vehicle: Klucel (hydroxypropylcellulose) (HPC)
  T/C: 109 % of control
[10]
  T/C: 118 % of control
[11]
  T/C: 116 % of control

## CC(C)(C)P(c1ccccc1)C(C)(C)C
dose: 100.0 mg/kg/injection, schedule: Q04DX002 (ip), vehicle: saline with Tween-80
  T/C: 103 % of control

## COc1ccc(C2OC3=Nc4ccccc4NC3C2=O)cc1OC (stereo unspecified)
[17]
  T/C: 107 % of control
[18]
  T/C: 105 % of control
[19]
  T/C: 100 % of control

## CC(=O)N/N=C1/C=C2C/C(=N\NC(C)=O)C=C2C1
[12]
  T/C: 99 % of control
[13]
  T/C: 95 % of control
[14]
  T/C: 90 % of control

## N#Cc1cnn(-c2cc(Cl)ccc2Cl)c1N
[1]
  T/C: 99 % of control and 95 % of control and 98 % of control
[2]
  T/C: 101 % of control and 103 % of control and 92 % of control
[3]
  T/C: 104 % of control and 105 % of control and 123 % of control

## O=C1CSC(c2cccc(Cl)c2)N1N1C(=O)CSC1c1cccc(Cl)c1 (stereo unspecified)
[17]
  T/C: 102 % of control
[18]
  T/C: 97 % of control
[19]
  T/C: 94 % of control

## CCOC(=O)C1=C(C)OC(C)(OC(C)=O)C1=O (stereo unspecified)
dose: 50.0 mg/kg/injection, schedule: Q01DX005 (ip), vehicle: saline
  T/C: 90 % of control
dose: 100.0 mg/kg/injection, schedule: Q01DX005 (ip), vehicle: saline
  T/C: 103 % of control
dose: 200.0 mg/kg/injection, schedule: Q01DX005 (ip), vehicle: saline
  T/C: 105 % of control

## CCC(=O)Nc1cc(Cl)cc2[nH]c(C)nc12
[1]
  T/C: 110 % of control
[2]
  T/C: 99 % of control
[3]
  T/C: 102 % of control

## N#CCOc1ccccc1
dose: 3.12 mg/kg/injection, schedule: Q01DX009 (ip), vehicle: other
  T/C: 101 % of control
dose: 6.25 mg/kg/injection, schedule: Q01DX009 (ip), vehicle: other
  T/C: 102 % of control
[15]
  T/C: 99 % of control
[16]
  T/C: 106 % of control

## COc1cc2c(c(OC)c1OC)-c1ccc(OC)c(=O)cc1[C@@H](N(C)C(=O)C(F)(F)F)CC2
dose: 1.25 mg/kg/injection, schedule: Q01DX009 (ip), vehicle: Klucel (hydroxypropylcellulose) (HPC)
  T/C: 154 % of control and 163 % of control

## O=C(CCl)NN=C1C2CC3CC(C2)CC1C3
[2]
  T/C: 113 % of control
